# Data reported in patent publication US7741361B2, “Glucocorticoid mimetics, methods of making them, pharmaceutical compositions, and uses thereof” (Boehringer Ingelheim Pharmaceuticals, Inc., priority 2004, dated 2010).
# System: glucocorticoid receptor
# Test: Glucocorticoid receptor cell assays (agonist activity in one or more of the above assays)
# Format: cell-based
# Conditions: assay not specified
# Method: B. Glucocorticoid Receptor Cell Assays
# 1. Induction of Aromatase in Fibroblasts (Cell Assay for Transactivation)
# Dexamethasone, a synthetic ligand to the glucocorticoid receptor (GR), induces expression of aromatase in human foreskin fibroblast cells. The activity of aromatase is measured by the conversion of testosterone to estradiol in culture media.
# Human foreskin fibroblast cells (ATCC Cat. No. CRL-2429, designation CCD112SK) are plated on 96 well plates at 50,000 cells per well 5 days before use, in Iscove's Modified Dulbecco's Media (GibcoBRL Life Technologies Cat No. 12440-053) supplemented with 10% charcoal filtered FBS (Clonetech Cat No. SH30068) and Gentamycin (GibcoBRL Life Technologies Cat. No. 15710-064). On the day of the experiment, the media in the wells is replaced with fresh media. Cells are treated with test compounds to final concentrations of 10^−5 M to 10^−8 M, and testosterone to a final concentration of 300 ng/mL. Each well has a total volume of 100 μL. Samples are made in duplicates. Control wells include: (a) wells that receive testosterone only, and (b) wells that receive testosterone plus 2 μM of dexamethasone to provide maximum induction of aromatase. Plates are incubated at 37° C. overnight (15 to 18 hours), and supernatants are harvested at the end of incubation. Estradiol in the supernatant is measured using ELISA kits for estradiol (made by ALPCO, obtained from American Laboratory Products Cat. No. 020-DR-2693) according to the manufacture's instruction. The amount of estradiol is inversely proportional to the ELISA signals in each well. The extent of aromatase induction by test compounds is expressed as a relative percentage to dexamethasone. EC50 values of test compounds are derived by non-linear curve fitting.
# 2. Inhibition of IL-6 Production in Fibroblasts (Cell Assay for Transrepression)
# Human foreskin fibroblast cells produce IL-6 in response to stimulation by pro-inflammatory cytokine IL-1.
# Human foreskin fibroblast cells (ATCC Cat. No. CRL-2429) are plated on 96 well plates at 5,000 cells per well the day before use, in Iscove's Modified Dulbecco's Media (GibcoBRL Life Technologies Cat. No. 12440-053) supplemented with 10% charcoal filtered FBS (Clonetech Cat. No. SH30068) and Gentamycin (GibcoBRL Life Technologies Cat. No. 15710-064). On the next day, media in the wells is replaced with fresh media. […] IL-6 levels in the supernatants are determined by the ELISA kits for IL-6 (MedSystems Diagnostics GmbH, Vienna, Austria, Cat. No. BMS213TEN) according to manufacture's instructions. […]
# Evaluation of agonist or antagonist activity of compounds binding to the glucocorticoid receptor may be determined by any of the assays. […]
row,SMILES,activity as an agonist of the glucocorticoid receptor function
1,"Cc1ccc2[nH]cc(CC(NS(=O)(=O)c3c(N)cc(Cl)cc3Cl)C(F)(F)F)c2c1 (stereo not shown) [2-Amino-4,6-dichloro-N-[2,2,2-trifluoro-1-(5-methyl-1H-indol-3-ylmethyl)ethyl]benzenesulfonamide]",activity as an agonist
2,"Nc1cc(Cl)cc(Cl)c1S(=O)(=O)NC(Cc1c[nH]c2ccccc12)C(F)(F)F (stereo not shown) [2-Amino-4,6-dichloro-N-[2,2,2-trifluoro-1-(1H-indol-3-ylmethyl)ethyl]benzenesulfonamide]",activity as an agonist
3,"Cc1cc(C)c(S(=O)(=O)NC(Cc2c[nH]c3ccc(C)cc23)C(F)(F)F)c(C)c1 (stereo not shown) [2,4,6-Trimethyl-N-[2,2,2-trifluoro-1-(5-methyl-1H-indol-3-ylmethyl)ethyl]benzenesulfonamide]",activity as an agonist
4,"Cc1cc(C)c(S(=O)(=O)NC(Cc2c[nH]c3ccccc23)C(F)(F)F)c(C)c1 (stereo not shown) [2,4,6-Trimethyl-N-[2,2,2-trifluoro-1-(1H-indol-3-ylmethyl)ethyl]benzenesulfonamide]",activity as an agonist
